These are literature values, as cited in patent publication US11857556B2, “Topical compositions of dutasteride” (SHILPA MEDICARE LIMITED, priority 2021, dated 2024).

Take `C[C@]12C=CC(=O)N[C@@H]1CC[C@@H]1[C@@H]2CC[C@]2(C)[C@@H](C(=O)Nc3cc(C(F)(F)F)ccc3C(F)(F)F)CC[C@@H]12` [Dutasteride, (5α,17β)-N-{2,5-bis(trifluoromethyl)phenyl}-3-oxo-4-azaandrost-1-ene-17-carboxamide]: the “Solubility in ethanol, methanol and polyethylene glycol 400” value (ethanol, methanol and polyethylene glycol 400) is recorded as “soluble”. Moreover, the Solubility in water entry (water) is “insoluble”.
